Results as given in patent US11137686B2, “Material for forming underlayer film for lithography, composition for forming underlayer film for lithography, underlayer film for lithography and production method thereof, and resist pattern forming method” (Mitsubishi Gas Chemical Company, Inc., priority 2015, dated 2021).

How the values were obtained:
[1] = Solubility in PGME and PGMEA at 23° C.; type: physicochemical; settings: for solubility in PGME: 1-methoxy-2-propanol (PGME); for solubility in PGMEA: propylene glycol monomethyl ether acetate (PGMEA)
Description: The amount of each compound dissolved in 1-methoxy-2-propanol (PGME) and propylene glycol monomethyl ether acetate (PGMEA) was measured at 23° C., and the results were evaluated with respect to the solubility according to the following criteria.
Evaluation A: 20% by mass or more
Evaluation B: 10% by mass or more and less than 20% by mass
Evaluation C: less than 10% by mass

[2] = Thermal weight loss temperature (thermogravimetric measurement, TG); type: physicochemical; settings: heated to 500° C. at 10° C./min, nitrogen stream
Description: (Thermal Weight Loss Temperature)
An “EXSTAR 6000 […] apparatus” manufactured by SII NanoTechnology Inc. was used, and about 5 mg of a sample was placed in an unsealed aluminum container and heated to 500° C. at a rate of temperature rise of 10° C./min in a nitrogen gas (30 mL/min) stream. The 10% thermal weight loss temperature was here measured.

solubility in PGME [1] | solubility in PGME, Evaluation [1] | solubility in PGMEA, Evaluation [1] | solubility in PGMEA [1] | 10% thermal weight loss temperature [2] | SMILES
≥ 20 % by mass | A (Evaluation A: 20% by mass or more) | A (Evaluation A: 20% by mass or more) | ≥ 20 % by mass | ≥ 400 °C | COc1cc(C2c3c(ccc4ccc(O)cc34)Oc3ccc4ccc(O)cc4c32)cc(I)c1O [B-3]
≥ 20 % by mass | A (Evaluation A: 20% by mass or more) | A (Evaluation A: 20% by mass or more) | ≥ 20 % by mass | ≥ 400 °C | COc1cc(C2c3c(ccc4cc(O)ccc34)Oc3ccc4cc(O)ccc4c32)cc(I)c1O [A-3]
≥ 20 % by mass | A (Evaluation A: 20% by mass or more) | A (Evaluation A: 20% by mass or more) | ≥ 20 % by mass | ≥ 400 °C | Oc1ccc2c3c(ccc2c1)Oc1ccc2cc(O)ccc2c1C3c1ccc(I)o1 [A-4]
≥ 20 % by mass | A (Evaluation A: 20% by mass or more) | A (Evaluation A: 20% by mass or more) | ≥ 20 % by mass | ≥ 400 °C | Oc1ccc2ccc3c(c2c1)C(c1ccc(I)o1)c1c(ccc2ccc(O)cc12)O3 [B-4]
≥ 20 % by mass | A (Evaluation A: 20% by mass or more) | A (Evaluation A: 20% by mass or more) | ≥ 20 % by mass | ≥ 400 °C | Oc1ccc2ccc3c(c2c1)C(c1ccc(I)cc1)c1c(ccc2ccc(O)cc12)O3 [B-2]

SMILES | solubility in PGME [1] | solubility in PGME, Evaluation [1] | solubility in PGMEA, Evaluation [1] | solubility in PGMEA [1] | 10% thermal weight loss temperature [2]
Oc1ccc2c3c(ccc2c1)Oc1ccc2cc(O)ccc2c1C3c1ccc(I)cc1 [A-2] | ≥ 20 % by mass | A (Evaluation A: 20% by mass or more) | B (Evaluation B: 10% by mass or more and less than 20% by mass) |  | ≥ 400 °C
